Measured values reported in patent publication US20260227408A1, “Compositions and Methods for Modulation of Immune Responses” (Flagship Pioneering Innovations VI, LLC, priority 2022, published 2026).

Key:
[1] = tested on: Raji cells (human B cell lymphoma); assay: pooled CRISPR KO screen: Raji cell killing by primary NK cells; format: cell-based; details: CRISPR KO of the protein in Raji cells, 24 hours co-culture with primary NK cells; for inhibitory effect on NK cytotoxicity (loss of function potentiates Raji cell killing): Example 5; for co-stimulatory effect on NK cytotoxicity (loss of function inhibits Raji cell killing): Example 4
Experimental: CRISPR system was used to generate a pooled KO library comprising 4,708 individual novel proteins within 2,127 lncRNAs and 998 known proteins in Raji cells (human B cell lymphoma). To understand the role of these proteins in modulation of NK cell cytotoxicity we conducted a cell killing assay using primary human NK cells. We examined the change in the initial library representation in Raji cells with the library representation after 24 hours of co-incubation with NK cells. We used known regulators of NK cell cytotoxicity as reference to establish hit significance.
CRISPR KO generation. CRISPR guide RNA library has been designed at ProFound Therapeutics to target 4,708 distinct predicted novel proteins localized within 2,127 lncRNA, 998 known proteins, including positive (inhibitors, for example B2M, TAP1, TAP2, HLA-DM) and negative (co-stimulators, for example, ICAM1, FAS, IL7, DGKE) of NK cell function, and 900 neutral controls (non-targeting and intergenic guide RNAs). The CRISPR guide RNA library was packaged into lentivirus, transduced into Raji Cas9 line at the MOI of 0.3 and selected using puromycin selection as described in [Sanjana N E, Shalem O, Zhang F. Nat. Methods. 2014 August; 11(8):783-4.
NK isolation and expansion. Primary human NK cells were isolated from frozen PBMCs using EasySep human NK cell isolation kit (StemCell, catalog #17955). Primary human NK cells were expanded using immunoCult NK cell expansion kit (StemCell, catalog #100-0711) following manufacturer protocol.
Screen setup. The screen was performed using 4 biological replicates. The NK cytotoxicity assay was performed by co-culturing 20 million Raji CRISPR KO library cells with 60 million primary NK cells for 24 hours in T75 tissue culture flask. NK cells were removed using positive CD56 selection kit (StemCell, catalog #17855). Dead cells were removed using EasySep dead cell removal (Annexin V) kit (StemCell, catalog #17899). Remaining Raji CRISPR KO library cells have been processed to extract genomic DNA. NGS library prep and illumina sequencing was performed on these cells and Raji cells prior to exposure to NK as described in [Sanjana N E, Shalem O, Zhang F. Nat. Methods. 2014 August; 11(8):783-4.
Data analysis. Screen analysis and interpretation was performed using ProFound Tx custom data analysis tools and confirmed with MAGeCK-VISPR as described in [Li W, Koster J, Xu H, Chen C H, Xiao T, Brown M, Liu S. Genome Biology 2015(281)].
Data analysis. Screen analysis and interpretation has been performed using ProFound Tx custom data analysis tools and confirmed with MAGeCK-VISPR as described in [Li W, Koster J, Xu H, Chen C H, Xiao T, Brown M, Liu S. Genome Biology 2015(281)].

[2] = tested on: Peripheral Blood Mononuclear Cells (PBMCs); assay: single cell RNA-seq of PBMCs treated with target protein; format: cell-based, human; details: 24 hours, vs scrambled protein control, FIG. 5A, 5B
Experimental: (§1) To determine the effect of the Target Protein on TLR activity, the Target Protein, irrelevant proteins and controls were applied+/−established TLR agonists to a commercial reporter cell line which monitors the two main signal transduction pathways that respond to TLR activation. To determine which immune cells are most responsive to the Target Proteins, the Target Proteins were applied to Peripheral Blood Mononuclear Cells (PBMCs) and then 24 hours later the PBMCs were subjected to single cell RNA-seq using cell hashing.
scRNA-seq: From example: Shifts in cell populations after treatment with Target Proteins are assessed by single cell RNA-seq (scRNA-seq). Target proteins (e.g., listed in the Sequence Listing) are synthesized through Fluorenylmethyloxycarbonyl (Fmoc) protection group chemistry using Solid Phase Peptide Synthesis (SPPS). Human primary blood mononuclear cells are seeded at […] in each well of 12-well plate with 1 ml of RPMI-1640 (10% FBS). […]
Post sequencing, reads are aligned to the human reference genome (GENCODE34/GRCH38). Reads are demultiplexed using DNA-barcoded antibodies and run through quality control (g. doublets are removed, singlet cells are selected with less than 15% mitochondria contamination at RNA levels and reads contain higher than 500 genes). […]

[3] = tested on: Interferon Regulatory Factor (IRF) pathway in THP-1 dual reporter cells; assay: THP-1 dual reporter assay (IRF-Lucia luciferase) with TLR agonists; format: cell-based
Experimental: as §1
Dual Reporter Assay: From example: NF-kB-SEAP and IRF-Lucia luciferase reporter monocyte (THP1) cells (InvivoGen) are cultured in RPMI 1640 media supplemented with HEPES buffer (10 mM), sodium pyruvate (1 mM), glucose (4.5 g/L), fetal bovine serum (10%), penicillin (100 U/mL), streptomycin ([…]), and 2-mercaptoethanol (0.05 mM). THP1 cells are treated with 100 ng/mL LPS (Sigma-Aldrich) for 24 hrs, the target protein (final conc. 10 μM), or left untreated.
After treatment, THP1 cells are cultured for 24 hrs and then assayed for reporter activity. Both reporter proteins are measurable in the cell culture supernatant when using QUANTI-Blue (InvivoGen), a SEAP detection reagent, and QUANTI-Luc (InvivoGen), a luciferase detection reagent. QUANTI-Blue is a colorimetric enzyme assay developed to determine any alkaline phosphatase activity in a biological sample, such as cell culture supernatant. QUANTI-Luc is a lyophilized assay reagent containing all the components required to quantitatively measure the activity of Lucia Luciferase other coelenterazine-utilizing luciferases. Increased reporter activity after treatment with target protein is observed in cells where the target protein is immune stimulating. Additionally, decreased reporter activity after treatment with the target protein is observed in cells where the target protein is immune dampening.

[4] = 10 μM, 24 hours, vs scramble peptide, FIG. 4

Molecule: SEQ ID NO: 35586: novel inhibitory ligand that suppresses NK-mediated cytotoxicity; lncRNA encoded protein (MWQNLNGDISSLWVSSLLAFNQLFCLTAAGLGTAQPP; listed as Homo sapiens)
- inhibitory effect on NK cytotoxicity (loss of function potentiates Raji cell killing) [1]: strong phenotypes

Molecule: SEQ ID NO: 33482: novel co-stimulatory ligand that potentiates NK-mediated cytotoxicity; lncRNA-encoded protein (VVTGSILLSLPITQHLPLKALPRPGLPPFKMSGSVQDLLLGHIALLGLVQVILPPQPPK; listed as Homo sapiens)
- co-stimulatory effect on NK cytotoxicity (loss of function inhibits Raji cell killing) [1]: strong phenotypes

Molecule: SEQ ID NO: 37413: Target Protein validated as a modulator of the innate immune response; toll-like receptor (TLR) inhibitor (MAAPSNKTELAWSPRLAA; listed as Homo sapiens)
- effect on T-cells, B-cells, and NK-cells (up- and downregulated genes, scRNA-seq) [2]: relatively small effects
- effect on active monocytes and dendritic cells (up- and downregulated genes, scRNA-seq) [2]: strongly affected
- IRF response, co-treatment with TLR1/2 agonist [3, 4]: inhibited
- IRF response, co-treatment with TLR2 agonist [3, 4]: no significant effect
- IRF response, co-treatment with TLR3 agonist [3, 4]: no significant effect
- IRF response, co-treatment with TLR4 agonist [3, 4]: inhibited
- IRF response, co-treatment with TLR5 agonist [3, 4]: no significant effect
- IRF response, co-treatment with TLR6/2 agonist [3, 4]: inhibited
- IRF response, co-treatment with TLR7 agonist [3, 4]: no significant effect
- IRF response, co-treatment with TLR8 agonist [3, 4]: no significant effect
- IRF response, co-treatment with TLR9 agonist [3, 4]: no significant effect
- IRF signal transduction pathway response from several TLRs ([3]; THP-1 dual reporter cells, FIG. 3, FIG. 4): significantly blocks
- relative IRF activity (reporter gene expression) ([3]; increasing peptide concentrations (0, 2.5, 5, 7.5, and 10 PM) in presence of LPS, 24 hours, FIG. 3): inhibition

B1: SEQ ID NO: 36545: novel inhibitory ligand that suppresses NK-mediated cytotoxicity; lncRNA encoded protein (protein, listed as Homo sapiens)
chain: MPEDLLFLDAAAQGLYFMLWLLSFELSVAVSELLRFTGPWRILSYTVHWVLDMQSVPFIAFLENNN
- inhibitory effect on NK cytotoxicity (loss of function potentiates Raji cell killing) [1]: strong phenotypes

B2: SEQ ID NO: 2013: novel inhibitory ligand that suppresses NK-mediated cytotoxicity; lncRNA encoded protein (protein, listed as Homo sapiens)
chain: MLSEGKPIPRREGKTATTERTFAVPVWKEIGISWRGLASTAGLFKSSTSILEENNADSRKMACHFGMCLAALLIKGKVLFFTF
- inhibitory effect on NK cytotoxicity (loss of function potentiates Raji cell killing) [1]: strong phenotypes

B3: SEQ ID NO: 37776: novel co-stimulatory ligand that potentiates NK-mediated cytotoxicity; lncRNA-encoded protein (protein, listed as Homo sapiens)
chain: MACIYPTTFYTSLPTKSLNMGISLTTILILSVAVLLSTAAPPSCRECYQSLHYRGEMQQYFTYHTHIERSCYGNLIEECVESGKSYYKVKNLGVCGSRNGAICPRGKQWLCFTKIGQWGVNTQVLEDIKREQIIAKAKASKPTTPPENRPRHFHSFIQKL
- co-stimulatory effect on NK cytotoxicity (loss of function inhibits Raji cell killing) [1]: strong phenotypes

B4: SEQ ID NO: 35050: novel co-stimulatory ligand that potentiates NK-mediated cytotoxicity; lncRNA-encoded protein (protein, listed as Homo sapiens)
chain: IYAHVGTEESSVVAMFSPQELTGEGMGQDPSLCKASVTVMFQVFLMTVCLYLTVLLTNNLLGSKGQHLLSKAQEEFEEN
- co-stimulatory effect on NK cytotoxicity (loss of function inhibits Raji cell killing) [1]: strong phenotypes
